Experimental data from patent US6713504B2, “Antifungal molecule 2-(3,4-dimethyl-2,5-dihydro-1H-pyrrol-2-yl)-1-methylethyl pentanoate” (Council of Scientific & Industrial Research, priority 2002, dated 2004).

System: A. fumigatus infection
Assay: Quantification of colony forming units in organs of infected mice
Assay type: in vivo, Balb/C mice
Description: In vivo efficacy of the compound against A. fumigatus infection was studied in the Balb/C mice of 6-8 weak of age of either sex, weighing 15-20 g each. The mice model of aspergillosis described by Dixon et al (1989), was used to study the effects of compound on in vivo infection of A. fumigatus.
The animals were housed in the micro-barrier cages on sterile bedding and fed ad libitum water and food. The mice were divided into 6 groups and each group contained 8-10 animals. The mice were infected experimentally with A. fumigatus. Three days prior to infection with conidia, mice were injected subcutaneously with 3 doses (250.0 mg/kg/day) of cortisone acetate in 400.0 μl of PBS. On the infection day, each mouse received 2×10^7 conidia by nasal instillation of a single droplet of conidial suspension. The animals of this model developed invasive aspergillosis and all the infected animals died within 4-6 days.
The mice were kept under constant watch and those getting moribund, dying or survived up to 10 days were sacrificed. The autopsy was performed on the mice who had died to remove their organs for quantification of colony forming units (CFU). The lungs, livers and kidneys of the mice were removed aseptically, placed in sterile PBS (pH 7.2) and homogenized with teflon pestle mortar. The CFU in the animals were determined by plating 10 fold dilutions of organ homogenates on Sabouraud dextrose agar containing 0.05% triton X-100. The triton X-100 limited the colony size and thus greatly facilitated colony counting (Frosco, 1992). After an incubation for 48 h at 37° C., colonies were counted and results were expressed as CFU per organ.
The fungal burden in the organs of the animals, which died or became moribund during study or those survived up to 10th day, was determined. The lungs, livers and kidneys of the animals were isolated, homogenized and the homogenate was used to culture the pathogen on Sabouraud dextrose agar plates. The colonies of the fungus were counted and expressed as colony forming units (CFU)/organ.

In the case of `CCCCC(=O)OC(C)CC1NCC(C)=C1C` (stereo not shown) [PC-1, 2-(3,4-dimethyl-2,5-dihydro-1H-pyrrol-2-yl)-1-methylethyl pentanoate], the “effect on colony counts in lung as compared to controls” value (400 mg/kg body weight, p<0.001) is reported as “reduced the colony counts significantly”, the “effect on number of CFUs in kidneys” value (100.0 to 400.0 mg/kg body weight) is reported as “significant reduction” and the “effect on the CFUs in the lung tissue” value (doses of 25.0 and 50.0 mg/kg body weight) is reported as “did not have any effect”. The “effect on CFUs in liver” value (liver) was “very less effect”.
